pIC50: −log10 of the molar value. The source made the active and inactive calls. The rule behind the calls is not given here.
Tests used:
[1] = species: Mus musculus; assay: Inhibition of LPS-induced PGE2 production in C57BL6 mouse peritoneal cells at 50 uM measured at 5 hrs time interval by ELISA; assay type: functional
[2] = Inhibition of LPS-induced PGE2 production in C57BL6 mouse peritoneal cells measured at 5 hrs time interval by ELISA; assay type: functional; details: C57BL6, 5 h
[3] = Cytotoxicity against C57BL6 mouse peritoneal cells assessed as cell viability measured at 5 hrs time interval by LDH release assay (reference value: 98.9 +/- 1.6%); assay type: cell-based; details: read-out: Activity

| pIC50 [2] | SMILES | inhibition [1] | viability at 5 h [3] [%] |
| --- | --- | --- | --- |
| 5.63 | Cc1ccc(-c2cc(Cl)nc(N)n2)cc1 | Active | 103 |
| 5.43 | CCCCc1c(-c2ccc(OC)cc2)nc(N)nc1-c1ccc(OC)cc1 | Active | 99.1 |
| 5.47 | CCCCc1c(-c2ccccc2)nc(N)nc1-c1ccc(OC)cc1 | Active | 102 |
|  | CCCCc1c(-c2ccccc2)nc(N)nc1-c1ccccc1 | Active |  |
|  | Cc1ccc(-c2nc(N)nc(-c3ccccc3)c2C)cc1 | Active |  |
|  | COc1ccc(-c2cc(-c3ccc(C)cc3)nc(N)n2)cc1 | Active |  |
|  | Cc1c(-c2ccccc2)nc(N)nc1-c1ccccc1 | Active |  |
| 5.39 | CC(=O)Oc1ccccc1C(=O)O [ASPIRIN] |  |  |
| 7.48 | Cc1ccc(-c2cc(-c3ccc(C)cc3)nc(N)n2)cc1 | Active | 103 |
| 8.30 | COc1ccc2c(c1)c(CC(=O)O)c(C)n2C(=O)c1ccc(Cl)cc1 [INDOMETHACIN] |  |  |
| 5.27 | CCCCc1c(Cl)nc(N)nc1Cl | Active | 99.8 |
|  | Cc1ccc(-c2nc(N)nc(-c3ccc(C)cc3)c2C)cc1 | Active |  |
| 5.67 | CCCCc1c(Cl)nc(N)nc1-c1ccc(OC)cc1 | Active | 96.6 |
|  | COc1ccc(-c2nc(N)nc(Cl)c2C)cc1 | Active |  |
| 8.52 | Nc1nc(-c2ccccc2)cc(-c2ccccc2)n1 | Active | 97.4 |
|  | Cc1ccc(-c2nc(N)nc(Cl)c2C)cc1 | Active |  |

| pIC50 [2] | SMILES | inhibition [1] | viability at 5 h [3] [%] |
| --- | --- | --- | --- |
| 5.73 | CCCCc1c(Cl)nc(N)nc1-c1ccc(C)cc1 | Active | 101 |
|  | Nc1nc(Cl)cc(Cl)n1 | inactive |  |
|  | Nc1nc(Cl)cc(-c2ccccc2)n1 | Active |  |
|  | CCCCc1c(-c2ccc(C)cc2)nc(N)nc1-c1ccc(OC)cc1 | Active |  |
|  | CCCCc1c(-c2ccc(C)cc2)nc(N)nc1-c1ccc(C)cc1 | Active |  |
| 5.61 | CCCCc1c(-c2ccccc2)nc(N)nc1-c1ccc(C)cc1 | Active | 102 |
|  | COc1ccc(-c2nc(N)nc(-c3ccc(OC)cc3)c2C)cc1 | Active |  |
|  | COc1ccc(-c2nc(N)nc(-c3ccccc3)c2C)cc1 | Active |  |
| 8.05 | COc1ccc(-c2cc(-c3ccccc3)nc(N)n2)cc1 | Active | 99.9 |
| 8.05 | Cc1ccc(-c2cc(-c3ccccc3)nc(N)n2)cc1 | Active | 103 |
|  | Cc1c(Cl)nc(N)nc1-c1ccccc1 | Active |  |
| 5.55 | COc1ccc(-c2cc(Cl)nc(N)n2)cc1 | Active | 103 |
| 6.92 | COc1ccc(-c2cc(-c3ccc(OC)cc3)nc(N)n2)cc1 | Active | 102 |
|  | Cc1c(Cl)nc(N)nc1Cl | inactive |  |
|  | COc1ccc(-c2nc(N)nc(-c3ccc(C)cc3)c2C)cc1 | Active |  |
|  | CCCCc1c(Cl)nc(N)nc1-c1ccccc1 | Active |  |

From ChEMBL document CHEMBL4270549, “Influence of the C-5 substitution in polysubstituted pyrimidines on inhibition of prostaglandin E2 production” (Eur J Med Chem, 2018)
